Tests used:
[1] = molecular target: SaClpP (Staphylococcus aureus ClpP) (Staphylococcus aureus, UniProt Q2G036, I91W); experiment: PAGE-based α-casein hydrolysis activation assay; DSF; assay type: biochemical
[2] = molecular target: T1, HsClpP (mitochondrial caseinolytic protease P) (Homo sapiens, UniProt Q16740, W146I); experiment: biochemical
T1 construct: gene CLPP

[3] = molecular target: T2, HsClpP (mitochondrial caseinolytic protease P) (Homo sapiens, UniProt Q16740); experiment: X-ray crystal structure at […] Å; DSF (ΔTm […] °C); EC50 from FITC-casein FI protease assay; CETSA; assay type: biochemical; set-up: gene CLPP; HsClpPΔ56 (N-terminus 56 amino acids truncated)
T2 sequence (Q16740 57-277): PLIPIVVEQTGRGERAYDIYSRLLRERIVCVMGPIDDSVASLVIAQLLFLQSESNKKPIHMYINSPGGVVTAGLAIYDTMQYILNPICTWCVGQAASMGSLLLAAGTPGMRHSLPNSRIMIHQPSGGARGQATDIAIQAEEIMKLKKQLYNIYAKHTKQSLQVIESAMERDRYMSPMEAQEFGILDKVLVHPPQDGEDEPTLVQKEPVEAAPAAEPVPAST

[4] = molecular target: T3, HsClpP (mitochondrial caseinolytic protease P) (Homo sapiens, UniProt Q16740, Y118A); experiment: PAGE-based α-casein degradation assay; NanoDSF; assay type: biochemical
T3 construct: gene CLPP
T3 sequence (Q16740 57-277 Y118A): as the sequence (Q16740 57-277) above, with Y62A counted along it

[5] = molecular target: T2, HsClpP (mitochondrial caseinolytic protease P); experiment: biochemical; set-up: gene CLPP

T1 sequence (Q16740 57-277 W146I): as the sequence (Q16740 57-277) above, with W90I counted along it

SMILES	EC50 [1]	EC50 [2]	EC50 [3]	PAGE-based α-casein degradation assay; NanoDSF [4]	EC50 [5]
O=C(NCc1ccc(Br)cc1)N1CCN(Cc2cc(F)cc(F)c2)CC1 [ZK53]	5.4 µM	11.8 µM	0.22 µM	ZK53 is still effective to promote Y118A ClpP for α-casein degradation in PAGE assay	–
O=C(COc1ccc(Cl)cc1)N1CCN(Cc2cc(F)cc(F)c2)CC1 [ZK11]	8.4 µM	42.4 µM	–	–	0.45 µM

From publication PMC10624687 (Nature Communications, 2023)
